Measured values reported in PubChem BioAssay AID248 (DTP/NCI, 2004).
Several values for one entry are separate records, joined by “and”; a condition that tells them apart may be missing. Identical values can stand only once. Toxic doses and inconclusive results are not listed.

Test system: L1210 leukemia ip in BDF1 mice, survival T/C
Assay: NCI In Vivo Anticancer Drug Screen. Data for tumor model L1210 Leukemia (intraperitoneal) in B6D2F1 (BDF1) mice
Settings: endpoint: mean survival time, higher = longer survival
Method in brief: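 Antitumor effect is assessed in tumor-bearing animals. Survival in the compound arm is compared with a vehicle-dosed control arm and expressed as their quotient.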

## O=c1cc(CO)[nH]cc1O
dose: 25.0 mg/kg/injection, schedule: Q01DX Z (ip), vehicle: methylcellulose (MC)
  T/C: 102 % of control
dose: 50.0 mg/kg/injection, schedule: Q01DX015 (ip), vehicle: carboxymethylcellulose (CMC)
  T/C: 103 % of control
dose: 50.0 mg/kg/injection, schedule: Q01DX Z (ip), vehicle: methylcellulose (MC)
  T/C: 96 % of control
dose: 62.5 mg/kg/injection, schedule: Q01DX015 (ip), vehicle: saline
  T/C: 115 % of control
dose: 78.0 mg/kg/injection, schedule: Q01DX Z (ip), vehicle: carboxymethylcellulose (CMC)
  T/C: 98 % of control and 112 % of control
dose: 78.0 mg/kg/injection, schedule: Q01DX Z (ip), vehicle: saline
  T/C: 96 % of control and 114 % of control
dose: 100.0 mg/kg/injection, schedule: Q01DX001 (ip), vehicle: Klucel (hydroxypropylcellulose) (HPC)
  T/C: 106 % of control
dose: 100.0 mg/kg/injection, schedule: Q01DX009 (ip), vehicle: Klucel (hydroxypropylcellulose) (HPC)
  T/C: 110 % of control and 121 % of control
dose: 100.0 mg/kg/injection, schedule: Q01DX009 (ip), vehicle: saline
  T/C: 121 % of control
dose: 100.0 mg/kg/injection, schedule: Q01DX015 (ip), vehicle: carboxymethylcellulose (CMC)
  T/C: 108 % of control
dose: 100.0 mg/kg/injection, schedule: Q01DX Z (ip), vehicle: methylcellulose (MC)
  T/C: 101 % of control
dose: 100.0 mg/kg/injection, schedule: Q04DX003 (ip), vehicle: Klucel (hydroxypropylcellulose) (HPC)
  T/C: 110 % of control
dose: 100.0 mg/kg/injection, schedule: Q04DX003 (ip), vehicle: saline
  T/C: 106 % of control
dose: 117.0 mg/kg/injection, schedule: Q01DX Z (ip), vehicle: carboxymethylcellulose (CMC)
  T/C: 104 % of control and 121 % of control
dose: 117.0 mg/kg/injection, schedule: Q01DX Z (ip), vehicle: methylcellulose (MC)
  T/C: 110 % of control
dose: 117.0 mg/kg/injection, schedule: Q01DX Z (ip), vehicle: saline
  T/C: 110 % of control and 120 % of control
dose: 125.0 mg/kg/injection, schedule: Q01DX001 (ip), vehicle: carboxymethylcellulose (CMC)
  T/C: 104 % of control and 106 % of control
dose: 125.0 mg/kg/injection, schedule: Q01DX015 (ip), vehicle: saline
  T/C: 113 % of control
dose: 125.0 mg/kg/injection, schedule: Q## X001 (ip), vehicle: carboxymethylcellulose (CMC)
  T/C: 100 % of control
dose: 175.0 mg/kg/injection, schedule: Q01DX Z (ip), vehicle: carboxymethylcellulose (CMC)
  T/C: 109 % of control
dose: 175.0 mg/kg/injection, schedule: Q01DX Z (ip), vehicle: methylcellulose (MC)
  T/C: 96 % of control
dose: 175.0 mg/kg/injection, schedule: Q01DX Z (ip), vehicle: saline
  T/C: 113 % of control
dose: 177.0 mg/kg/injection, schedule: Q01DX009 (ip), vehicle: Klucel (hydroxypropylcellulose) (HPC)
  T/C: 121 % of control
dose: 200.0 mg/kg/injection, schedule: Q01DX001 (ip), vehicle: Klucel (hydroxypropylcellulose) (HPC)
  T/C: 110 % of control
dose: 200.0 mg/kg/injection, schedule: Q01DX009 (ip), vehicle: Klucel (hydroxypropylcellulose) (HPC)
  T/C: 151 % of control
dose: 200.0 mg/kg/injection, schedule: Q04DX003 (ip), vehicle: Klucel (hydroxypropylcellulose) (HPC)
  T/C: 122 % of control
dose: 200.0 mg/kg/injection, schedule: Q04DX003 (ip), vehicle: saline
  T/C: 115 % of control
dose: 250.0 mg/kg/injection, schedule: Q01DX001 (ip), vehicle: carboxymethylcellulose (CMC)
  T/C: 97 % of control and 101 % of control
dose: 250.0 mg/kg/injection, schedule: Q01DX015 (ip), vehicle: saline
  T/C: 159 % of control
dose: 250.0 mg/kg/injection, schedule: Q## X001 (ip), vehicle: carboxymethylcellulose (CMC)
  T/C: 106 % of control
dose: 263.0 mg/kg/injection, schedule: Q01DX Z (ip), vehicle: carboxymethylcellulose (CMC)
  T/C: 124 % of control
dose: 263.0 mg/kg/injection, schedule: Q01DX Z (ip), vehicle: methylcellulose (MC)
  T/C: 110 % of control
dose: 264.0 mg/kg/injection, schedule: Q01DX008 (ip), vehicle: saline
  T/C: 106 % of control
dose: 264.0 mg/kg/injection, schedule: Q01DX009 (ip), vehicle: saline
  T/C: 101 % of control
dose: 393.0 mg/kg/injection, schedule: Q01DX Z (ip), vehicle: methylcellulose (MC)
  T/C: 116 % of control
dose: 400.0 mg/kg/injection, schedule: Q01DX001 (ip), vehicle: Klucel (hydroxypropylcellulose) (HPC)
  T/C: 112 % of control
dose: 400.0 mg/kg/injection, schedule: Q01DX008 (ip), vehicle: saline
  T/C: 116 % of control
dose: 400.0 mg/kg/injection, schedule: Q01DX009 (ip), vehicle: Klucel (hydroxypropylcellulose) (HPC)
  T/C: 156 % of control
dose: 400.0 mg/kg/injection, schedule: Q04DX003 (ip), vehicle: Klucel (hydroxypropylcellulose) (HPC)
  T/C: 122 % of control
dose: 400.0 mg/kg/injection, schedule: Q04DX003 (ip), vehicle: saline
  T/C: 112 % of control
dose: 500.0 mg/kg/injection, schedule: Q01DX001 (ip), vehicle: carboxymethylcellulose (CMC)
  T/C: 95 % of control and 111 % of control
dose: 500.0 mg/kg/injection, schedule: Q01DX015 (ip), vehicle: saline
  T/C: 165 % of control
dose: 500.0 mg/kg/injection, schedule: Q01DX Z (ip), vehicle: methylcellulose (MC)
  T/C: 106 % of control
dose: 500.0 mg/kg/injection, schedule: Q## X001 (ip), vehicle: carboxymethylcellulose (CMC)
  T/C: 101 % of control
dose: 590.0 mg/kg/injection, schedule: Q01DX Z (ip), vehicle: carboxymethylcellulose (CMC)
  T/C: 105 % of control
dose: 625.0 mg/kg/injection, schedule: Q01DX Z (ip), vehicle: methylcellulose (MC)
  T/C: 108 % of control
dose: 750.0 mg/kg/injection, schedule: Q01DX Z (ip), vehicle: methylcellulose (MC)
  T/C: 120 % of control
dose: 1000.0 mg/kg/injection, schedule: Q01DX001 (ip), vehicle: carboxymethylcellulose (CMC)
  T/C: 102 % of control and 105 % of control
dose: 1000.0 mg/kg/injection, schedule: Q## X001 (ip), vehicle: carboxymethylcellulose (CMC)
  T/C: 108 % of control

## CC(=O)OCC1OC(OC2C(COC(C)=O)OC(Sc3ccccc3)C(OC(C)=O)C2OC(C)=O)C(OC(C)=O)C(OC(C)=O)C1OC(C)=O (stereo not given)
dose: 3.13 mg/kg/injection, schedule: Q01DX009 (ip), vehicle: saline with Tween-80
  T/C: 89 % of control
dose: 12.5 mg/kg/injection, schedule: Q01DX009 (ip), vehicle: saline with Tween-80
  T/C: 89 % of control
dose: 25.0 mg/kg/injection, schedule: Q01DX009 (ip), vehicle: saline with Tween-80
  T/C: 90 % of control
dose: 25.0 mg/kg/injection, schedule: Q04DX003 (ip), vehicle: saline with Tween-80
  T/C: 95 % of control
dose: 50.0 mg/kg/injection, schedule: Q01DX009 (ip), vehicle: saline with Tween-80
  T/C: 90 % of control
dose: 50.0 mg/kg/injection, schedule: Q04DX003 (ip), vehicle: saline with Tween-80
  T/C: 95 % of control
dose: 100.0 mg/kg/injection, schedule: Q01DX009 (ip), vehicle: saline with Tween-80
  T/C: 88 % of control
dose: 100.0 mg/kg/injection, schedule: Q04DX003 (ip), vehicle: saline with Tween-80
  T/C: 92 % of control
dose: 200.0 mg/kg/injection, schedule: Q01DX009 (ip), vehicle: saline with Tween-80
  T/C: 94 % of control
dose: 200.0 mg/kg/injection, schedule: Q04DX003 (ip), vehicle: saline with Tween-80
  T/C: 91 % of control
dose: 400.0 mg/kg/injection, schedule: Q04DX003 (ip), vehicle: saline with Tween-80
  T/C: 87 % of control
